Among the data in BindingDB's records for doi:10.1021/acschembio.6b00012 (Broad Institute, 2016) are IC50 values, retold here.

The structures appear in SMILES notation.

Experiment in all cases: HDAC Enzymatic Assay
Common to all, as to details: pH 7.4

One experiment deals with Histone deacetylase 3 (Homo sapiens, UniProt O15379). On the procedure: (§1) Briefly, this fluorogenic assays uses an acetylated lysine tripeptide substrate, amide-linked to a fluorescently quenched aminocoumarin (AMC). Enzyme reactions were run in 50 mM HEPES, 100 mM KCl, 0.001% (v/v) Tween-20, 0.05% (w/v) BSA, pH 7.4. The appropriate substrate concentration for each HDAC was determined using their corresponding Km values. Km values were determined by monitoring the increase of fluorescence of each HDAC at varying substrate concentrations. The increase in fluorescence units was plotted versus substrate concentration. Assays corresponding to HDACs 4, 5, 7, 8, 9 involved a trifluoroacetylated lysine substrate as described in Bradner et al, while HDACs 1, 2, 3, and 6 used an acetyl-Leu-Gly-acetyl-Lys tripeptide as the substrate. Reactions were carriedout in 384-well plates and fluorescence was measured using a multi-label plate reader and plate stacker (Envision, Perkin-Elmer).
Sequence of Histone deacetylase 3 (O15379 whole entry): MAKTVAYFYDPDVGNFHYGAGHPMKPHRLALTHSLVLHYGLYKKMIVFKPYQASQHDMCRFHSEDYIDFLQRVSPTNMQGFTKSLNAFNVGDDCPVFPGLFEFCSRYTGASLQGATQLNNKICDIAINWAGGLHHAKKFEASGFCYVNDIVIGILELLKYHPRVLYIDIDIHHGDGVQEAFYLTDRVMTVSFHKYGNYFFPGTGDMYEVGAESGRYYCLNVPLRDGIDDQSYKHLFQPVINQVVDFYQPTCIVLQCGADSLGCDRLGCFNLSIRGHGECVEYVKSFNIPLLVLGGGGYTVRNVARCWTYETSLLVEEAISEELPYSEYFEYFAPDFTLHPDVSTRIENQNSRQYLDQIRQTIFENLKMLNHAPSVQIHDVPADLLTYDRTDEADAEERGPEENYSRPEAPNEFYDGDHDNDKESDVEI

In a further experiment the target is Histone deacetylase 2 (Homo sapiens, UniProt Q92769). On the procedure: as §1
Sequence of Histone deacetylase 2 (Q92769 whole entry): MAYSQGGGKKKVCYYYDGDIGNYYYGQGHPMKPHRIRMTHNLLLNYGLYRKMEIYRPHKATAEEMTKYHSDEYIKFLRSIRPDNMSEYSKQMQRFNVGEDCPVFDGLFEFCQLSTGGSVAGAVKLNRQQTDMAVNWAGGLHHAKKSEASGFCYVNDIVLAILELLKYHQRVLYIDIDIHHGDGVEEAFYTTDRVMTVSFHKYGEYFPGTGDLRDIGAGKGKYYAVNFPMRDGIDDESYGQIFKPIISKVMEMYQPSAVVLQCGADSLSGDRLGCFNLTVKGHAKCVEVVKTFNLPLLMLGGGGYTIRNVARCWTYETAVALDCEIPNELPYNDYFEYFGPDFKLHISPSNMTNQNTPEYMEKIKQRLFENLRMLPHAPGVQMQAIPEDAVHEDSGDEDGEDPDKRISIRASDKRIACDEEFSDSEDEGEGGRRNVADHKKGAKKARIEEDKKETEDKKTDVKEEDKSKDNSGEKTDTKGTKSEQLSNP
Another experiment deals with T1, Histone deacetylase 7 (Homo sapiens, UniProt Q8WUI4).
T1 sequence (Q8WUI4 whole entry): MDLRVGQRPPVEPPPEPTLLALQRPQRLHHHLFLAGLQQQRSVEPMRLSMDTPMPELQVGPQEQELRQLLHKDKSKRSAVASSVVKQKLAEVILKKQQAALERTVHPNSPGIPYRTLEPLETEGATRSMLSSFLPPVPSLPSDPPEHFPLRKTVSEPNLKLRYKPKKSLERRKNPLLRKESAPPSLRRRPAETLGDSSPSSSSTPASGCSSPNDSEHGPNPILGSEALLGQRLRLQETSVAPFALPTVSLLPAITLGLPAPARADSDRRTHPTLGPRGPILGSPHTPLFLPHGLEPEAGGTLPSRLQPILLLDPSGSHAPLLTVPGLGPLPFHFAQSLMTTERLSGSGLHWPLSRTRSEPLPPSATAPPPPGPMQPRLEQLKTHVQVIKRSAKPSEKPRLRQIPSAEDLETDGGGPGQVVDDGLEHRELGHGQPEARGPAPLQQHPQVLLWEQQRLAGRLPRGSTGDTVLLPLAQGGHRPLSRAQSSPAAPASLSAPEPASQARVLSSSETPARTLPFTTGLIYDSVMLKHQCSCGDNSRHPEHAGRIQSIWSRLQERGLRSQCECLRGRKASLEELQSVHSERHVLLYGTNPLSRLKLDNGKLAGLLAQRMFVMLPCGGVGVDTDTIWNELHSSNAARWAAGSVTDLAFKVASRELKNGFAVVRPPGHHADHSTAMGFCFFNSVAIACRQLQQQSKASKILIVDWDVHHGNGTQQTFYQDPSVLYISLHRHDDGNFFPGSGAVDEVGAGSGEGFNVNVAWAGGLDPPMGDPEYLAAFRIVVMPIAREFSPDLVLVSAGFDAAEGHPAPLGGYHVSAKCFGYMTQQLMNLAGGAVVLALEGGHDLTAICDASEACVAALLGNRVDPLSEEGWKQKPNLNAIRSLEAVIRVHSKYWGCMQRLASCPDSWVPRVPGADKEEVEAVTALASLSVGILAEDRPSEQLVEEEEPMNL
On the procedure:
as §1

The next experiment addresses Histone deacetylase 5 (Homo sapiens, UniProt Q9UQL6). On the procedure:
as §1

Another experiment has as its target Histone deacetylase 1 (Homo sapiens, UniProt Q13547). On the procedure: as §1
The target of experiment [1] is Histone deacetylase 8 [R223M] (Homo sapiens, UniProt Q9BY41, R223M). Here is the method:
as §1

For the next experiment, the target named is Histone deacetylase 4 (Homo sapiens, UniProt P56524). Here is the method: as §1
Sequence of Histone deacetylase 4 (P56524 whole entry): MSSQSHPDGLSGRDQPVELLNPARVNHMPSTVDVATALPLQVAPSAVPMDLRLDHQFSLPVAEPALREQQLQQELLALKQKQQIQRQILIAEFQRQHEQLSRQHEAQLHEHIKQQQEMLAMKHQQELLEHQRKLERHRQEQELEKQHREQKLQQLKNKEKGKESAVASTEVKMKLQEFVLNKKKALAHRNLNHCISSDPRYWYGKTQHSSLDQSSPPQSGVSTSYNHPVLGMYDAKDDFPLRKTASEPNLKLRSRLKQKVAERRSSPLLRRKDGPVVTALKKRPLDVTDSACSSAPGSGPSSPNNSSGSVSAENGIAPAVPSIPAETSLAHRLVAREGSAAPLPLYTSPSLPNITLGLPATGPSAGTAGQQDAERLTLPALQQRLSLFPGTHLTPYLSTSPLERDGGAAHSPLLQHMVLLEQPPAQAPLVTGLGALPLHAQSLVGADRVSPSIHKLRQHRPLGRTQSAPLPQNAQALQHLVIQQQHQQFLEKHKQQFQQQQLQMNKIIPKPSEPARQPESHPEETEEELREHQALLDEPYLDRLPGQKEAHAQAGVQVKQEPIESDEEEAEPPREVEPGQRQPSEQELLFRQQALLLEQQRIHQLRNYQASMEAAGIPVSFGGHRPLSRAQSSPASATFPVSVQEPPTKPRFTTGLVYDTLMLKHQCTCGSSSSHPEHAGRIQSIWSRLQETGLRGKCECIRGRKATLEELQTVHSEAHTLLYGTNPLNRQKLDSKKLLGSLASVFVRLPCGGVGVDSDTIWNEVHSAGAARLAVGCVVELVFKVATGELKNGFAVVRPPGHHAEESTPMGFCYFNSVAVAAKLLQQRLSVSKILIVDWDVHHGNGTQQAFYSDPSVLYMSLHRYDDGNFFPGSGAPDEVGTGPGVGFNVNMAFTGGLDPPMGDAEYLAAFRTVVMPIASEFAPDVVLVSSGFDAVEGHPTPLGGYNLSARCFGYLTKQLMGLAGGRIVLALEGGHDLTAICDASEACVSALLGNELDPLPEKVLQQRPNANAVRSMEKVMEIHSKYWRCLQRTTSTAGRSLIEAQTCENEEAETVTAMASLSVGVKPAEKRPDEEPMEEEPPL
The target in a further experiment is Histone deacetylase 9 (Homo sapiens, UniProt Q9UKV0). On the procedure:
as §1

Sequence of Histone deacetylase 5 (Q9UQL6 whole entry): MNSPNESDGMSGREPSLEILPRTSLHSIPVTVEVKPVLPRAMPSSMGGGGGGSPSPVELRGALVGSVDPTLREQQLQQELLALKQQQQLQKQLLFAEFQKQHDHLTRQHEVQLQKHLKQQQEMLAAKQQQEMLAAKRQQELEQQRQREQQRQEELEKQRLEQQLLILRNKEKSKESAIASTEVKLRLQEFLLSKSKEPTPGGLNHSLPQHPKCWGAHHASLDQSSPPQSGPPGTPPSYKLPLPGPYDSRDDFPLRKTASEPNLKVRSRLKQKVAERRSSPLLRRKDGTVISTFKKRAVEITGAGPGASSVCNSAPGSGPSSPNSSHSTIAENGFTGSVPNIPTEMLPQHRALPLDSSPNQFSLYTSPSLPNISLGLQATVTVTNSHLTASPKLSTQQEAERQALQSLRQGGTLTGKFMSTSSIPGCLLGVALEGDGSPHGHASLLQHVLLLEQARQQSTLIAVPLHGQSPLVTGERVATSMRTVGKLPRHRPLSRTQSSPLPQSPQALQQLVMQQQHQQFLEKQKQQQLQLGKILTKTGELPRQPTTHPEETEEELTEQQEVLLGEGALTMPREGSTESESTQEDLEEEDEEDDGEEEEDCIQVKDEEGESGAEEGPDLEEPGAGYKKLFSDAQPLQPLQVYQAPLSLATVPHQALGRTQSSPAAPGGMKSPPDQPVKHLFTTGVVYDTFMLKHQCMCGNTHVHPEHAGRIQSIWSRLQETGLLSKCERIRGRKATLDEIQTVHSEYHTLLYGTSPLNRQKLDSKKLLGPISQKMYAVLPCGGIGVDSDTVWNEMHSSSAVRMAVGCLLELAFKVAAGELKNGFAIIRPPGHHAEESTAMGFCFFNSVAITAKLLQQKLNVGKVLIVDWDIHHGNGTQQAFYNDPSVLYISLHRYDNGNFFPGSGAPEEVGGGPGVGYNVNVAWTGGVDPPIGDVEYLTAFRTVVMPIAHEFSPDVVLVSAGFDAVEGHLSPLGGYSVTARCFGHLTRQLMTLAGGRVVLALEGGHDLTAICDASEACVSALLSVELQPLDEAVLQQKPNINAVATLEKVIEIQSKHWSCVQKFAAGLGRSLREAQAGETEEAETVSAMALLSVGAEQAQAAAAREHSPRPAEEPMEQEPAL
Sequence of Histone deacetylase 1 (Q13547 whole entry): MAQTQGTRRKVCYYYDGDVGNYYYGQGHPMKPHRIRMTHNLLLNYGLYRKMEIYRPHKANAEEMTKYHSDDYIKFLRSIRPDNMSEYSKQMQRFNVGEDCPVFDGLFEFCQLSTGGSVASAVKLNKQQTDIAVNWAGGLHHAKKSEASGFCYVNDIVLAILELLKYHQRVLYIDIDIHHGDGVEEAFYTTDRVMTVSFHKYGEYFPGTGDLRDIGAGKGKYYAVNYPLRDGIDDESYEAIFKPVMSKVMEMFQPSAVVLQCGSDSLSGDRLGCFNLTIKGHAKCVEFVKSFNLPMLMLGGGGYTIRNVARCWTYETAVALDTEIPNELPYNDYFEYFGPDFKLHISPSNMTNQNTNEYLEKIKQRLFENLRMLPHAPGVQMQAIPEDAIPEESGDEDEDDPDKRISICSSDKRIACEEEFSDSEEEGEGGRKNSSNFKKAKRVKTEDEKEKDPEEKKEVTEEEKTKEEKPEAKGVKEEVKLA
Sequence of Histone deacetylase 8 [R223M] (Q9BY41 whole entry R223W): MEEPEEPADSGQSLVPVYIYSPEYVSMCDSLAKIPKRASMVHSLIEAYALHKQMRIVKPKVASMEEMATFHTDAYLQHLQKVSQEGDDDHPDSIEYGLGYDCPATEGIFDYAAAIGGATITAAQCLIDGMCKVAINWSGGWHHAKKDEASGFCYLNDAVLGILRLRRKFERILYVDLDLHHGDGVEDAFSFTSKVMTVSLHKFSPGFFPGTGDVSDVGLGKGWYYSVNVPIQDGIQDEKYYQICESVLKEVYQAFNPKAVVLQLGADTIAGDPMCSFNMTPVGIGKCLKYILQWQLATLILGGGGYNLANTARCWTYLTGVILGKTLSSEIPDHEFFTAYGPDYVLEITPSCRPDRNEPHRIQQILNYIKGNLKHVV
Sequence of Histone deacetylase 9 (Q9UKV0 whole entry): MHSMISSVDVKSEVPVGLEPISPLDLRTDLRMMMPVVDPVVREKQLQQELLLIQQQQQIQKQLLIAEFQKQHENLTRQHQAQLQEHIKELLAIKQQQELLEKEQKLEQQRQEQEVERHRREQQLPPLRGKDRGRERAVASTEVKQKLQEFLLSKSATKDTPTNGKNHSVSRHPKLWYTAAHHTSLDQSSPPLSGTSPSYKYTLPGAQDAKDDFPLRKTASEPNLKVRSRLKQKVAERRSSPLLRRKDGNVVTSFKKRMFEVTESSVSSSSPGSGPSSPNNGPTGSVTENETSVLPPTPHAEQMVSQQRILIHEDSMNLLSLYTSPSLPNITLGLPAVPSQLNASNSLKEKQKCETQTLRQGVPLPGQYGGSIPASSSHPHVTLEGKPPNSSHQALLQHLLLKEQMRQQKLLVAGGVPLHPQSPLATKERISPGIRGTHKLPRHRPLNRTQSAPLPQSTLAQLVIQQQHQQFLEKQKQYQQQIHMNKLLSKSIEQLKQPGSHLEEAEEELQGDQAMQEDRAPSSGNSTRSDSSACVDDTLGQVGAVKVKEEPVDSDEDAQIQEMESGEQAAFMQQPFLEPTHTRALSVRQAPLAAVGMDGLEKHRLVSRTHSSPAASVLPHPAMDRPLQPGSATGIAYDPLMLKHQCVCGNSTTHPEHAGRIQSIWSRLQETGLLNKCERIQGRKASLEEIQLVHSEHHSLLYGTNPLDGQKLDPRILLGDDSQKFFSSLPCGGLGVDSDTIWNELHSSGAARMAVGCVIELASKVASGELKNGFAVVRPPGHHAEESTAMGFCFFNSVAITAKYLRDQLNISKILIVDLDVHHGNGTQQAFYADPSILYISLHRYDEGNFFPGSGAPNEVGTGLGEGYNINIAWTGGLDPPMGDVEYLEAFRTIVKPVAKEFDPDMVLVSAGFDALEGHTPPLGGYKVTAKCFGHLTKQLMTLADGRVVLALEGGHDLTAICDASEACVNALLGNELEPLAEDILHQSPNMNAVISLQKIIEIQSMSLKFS

In the case of `CCN1CCN(C(c2cccnc2)c2cc(Cl)c3cccnc3c2O)CC1` (stereo not drawn) [5-chloranyl-7-[(4-ethylpiperazin-1-yl)-pyridin-3-yl-methyl]quinolin-8-ol], the 50% inhibitory concentration (IC50) – broadly, the concentration that inhibits the measured activity by half – at Histone deacetylase 3 is 65.1 µM; against Histone deacetylase 2, 67.2 µM; against Histone deacetylase 7, 8.44 µM; against Histone deacetylase 5 it was 850 nM; on Histone deacetylase 1, 40.4 µM; in experiment [1], 3.89 µM. The IC50 against Histone deacetylase 4 is 13.8 µM; on Histone deacetylase 9 it was 1880 nM.
